Among the data in patent US10344024B2, “Compounds as ROR gamma modulators” (Glenmark Pharmaceuticals S.A., priority 2015, dated 2019) are inhibition and IC50 values, retold here.

pIC50: −log10 of the molar value. Bounds are passed on as bounds.

For orientation: inhibition means how much of the control response was suppressed. One may read the pIC50 as −log10 of the IC50, conventionally taken in molar units.

This experiment deals with T1, GST-tagged ROR gamma ligand binding domain (LBD) (Homo sapiens, UniProt P51449).
T1 construct: purchased Invitrogen
T1 sequence (P51449 269-508 limits assumed): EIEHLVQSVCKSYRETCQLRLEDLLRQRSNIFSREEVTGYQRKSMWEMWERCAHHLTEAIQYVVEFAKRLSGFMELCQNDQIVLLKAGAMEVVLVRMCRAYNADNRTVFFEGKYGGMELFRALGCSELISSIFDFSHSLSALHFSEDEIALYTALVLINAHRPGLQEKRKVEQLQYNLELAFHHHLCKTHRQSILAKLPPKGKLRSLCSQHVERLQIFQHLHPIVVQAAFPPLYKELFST
The experiment in a line: TR-FRET assay for ROR gamma (LanthaScreen co-activator peptide recruitment). The format is biochemical. Particulars: for inhibition at 1 µM: compound concentration 1 μM; for inhibition at 1 µM / inhibition at 10 µM: TR-FRET ratio 520/495, percent of control; for inhibition at 10 µM: compound concentration 10 μM; for pIC50: from dose response curve, nonlinear regression, read-out: IC50 range. An excerpt: The compounds described herein were screened for ROR gamma modulator activity using the TR-FRET assay (LanthaScreen™ available from Invitrogen of Carlsbad, Calif.) as described in JBC 2011, 286, 26: 22707-10; and Drug Metabolism and Disposition 2009, 37, 10: 2069-78.
Binding of the co-activator peptide, causes an increase in the TR-FRET signal while binding of an antagonist decreases the recruitment of the co-activator peptide, causing a decrease in the TR-FRET signal compared to control with no compound. The assay was performed using a two-step procedure, pre-incubation step with the compound followed by the detection step on addition of the anti-GST tagged terbium (Tb) and fluorescein tagged fluorophores as the acceptor.
Test compounds or reference compounds such as T0901317 (Calbiochem) were dissolved in dimethylsulfoxide (DMSO) to prepare 10.0 mM stock solutions and diluted to the desired concentration. The final concentration of DMSO in the reaction was 4% (v/v). The assay mixture was prepared by mixing 10 nM of the GST-tagged ROR gamma ligand binding domain (LBD) in the assay buffer containing 25 mM HEPES (pH 7.4), 100 mM NaCl, 5 mM DTT and 0.01% BSA with or without the desired concentration of the compound. The reaction was incubated at 22° C. for 1 hour. The pre-incubation step was terminated by addition of the detection mixture containing 300 nM Fluorescein-D22 co-activator peptide and 10 nM lantha screen Tb-anti GST antibody into the reaction mixture.
After shaking for 5 minutes the reaction was further incubated for 1 hour at room temperature and read at 4° C. on an Infinite F500 reader as per the kit instructions (Invitrogen). The inhibition of test compound was calculated based on the TR-FRET ratio of 520/495. The activity was calculated as a percent of control reaction. IC50 values were calculated from dose response curve by nonlinear regression analysis using GraphPad Prism software.
(In general: In TR-FRET formats the signal depends on donor and acceptor labels being close together.)

In the case of `CCC(F)(F)c1ccc(CC(=O)Nc2ccc(-c3nccc(=O)n3-c3ccc(F)cc3Cl)cc2)cc1` [Example 49, N-(4-(1-(2-Chloro-4-fluorophenyl)-6-oxo-1,6-dihydropyrimidin-2-yl)phenyl)-2-(4-(1,1-difluoropropyl)phenyl)acetamide], the inhibition at 1 µM was found to be 84%, the inhibition at 10 µM is 88.8% and the pIC50 was over 7.30.

`CCC(F)(F)c1ccc(CC(=O)Nc2ccc(-c3nccnc3-c3ccc(Cl)cc3Cl)cc2)cc1` [Example 50, N-(4-(3-(2,4-Dichlorophenyl)pyrazin-2-yl)phenyl)-2-(4-(1,1-difluoropropyl)phenyl)acetamide]: the inhibition at 1 µM stood at 83.2%, the inhibition at 10 µM is 83% and the pIC50 was over 7.30.

Turning to `Cc1ccc(-c2nccnc2-c2ccc(NC(=O)Cc3ccc(C(F)(F)C(C)O)cc3)cc2)c(C)c1` (stereo not shown) [Example 51, 2-(4-(1,1-Difluoro-2-hydroxypropyl)phenyl)-N-(4-(3-(2,4-dimethylphenyl)pyrazin-2-yl)phenyl)acetamide], the inhibition at 1 µM is 73.2%, the inhibition at 10 µM turned out to be 81% and the pIC50 was over 7.30.

For `CCc1ccccc1-c1nccnc1-c1ccc(NC(=O)Cc2ccc(C(F)(F)[C@H](C)O)cc2)cc1` [Example 52, (S)-2-(4-(1,1-difluoro-2-hydroxypropyl)phenyl)-N-(4-(3-(2-ethylphenyl)pyrazin-2-yl)phenyl)acetamide], the inhibition at 1 µM amounted to 78.6%, the inhibition at 10 µM was determined as 84% and the pIC50 was over 7.30.

For the compound `CCc1ccccc1-c1nccnc1-c1ccc(NC(=O)Cc2ccc(C(F)(F)[C@@H](C)O)cc2)cc1` [Example 53, (R)-2-(4-(1,1-difluoro-2-hydroxypropyl)phenyl)-N-(4-(3-(2-ethylphenyl)pyrazin-2-yl)phenyl)acetamide], the inhibition at 1 µM came to 70.5%, the inhibition at 10 µM is 77% and the pIC50 was over 7.30.

For `CC(O)C(F)(F)c1ccc(CC(=O)Nc2ccc(-c3nccnc3N3CCN(C(=O)C4CC4)CC3)cc2)cc1` (stereo not shown) [Example 54, N-(4-(3-(4-(Cyclopropanecarbonyl)piperazin-1-yl)pyrazin-2-yl)phenyl)-2-(4-(1,1-difluoro-2-hydroxypropyl)phenyl)acetamide], the inhibition at 1 µM turned out to be 23.1% and the inhibition at 10 µM was found to be 42.4%.

For the compound `CCC(F)(F)c1ccc(CC(=O)Nc2ccc(-c3nccnc3N(C)c3ccc(Cl)cc3)cc2)cc1` [Example 55, N-(4-(3-((4-Chlorophenyl)(methyl)amino)pyrazin-2-yl)phenyl)-2-(4-(1,1-difluoropropyl)phenyl)acetamide], the inhibition at 1 µM is 56.5% and the inhibition at 10 µM amounted to 64.6%.

Take `CCC(F)(F)c1ccc(CC(=O)Nc2ccc(-c3nccnc3N(C)Cc3ccccc3)cc2)cc1` [Example 56, N-(4-(3-(Benzyl(methyl)amino)pyrazin-2-yl)phenyl)-2-(4-(1,1-difluoropropyl)phenyl)acetamide]: the inhibition at 1 µM was found to be 73.4%, the inhibition at 10 µM was 85.8% and the pIC50 was 6.30 to 7.00.

Regarding `CCC(F)(F)c1ccc(CC(=O)Nc2ccc(-c3nccnc3NCc3ccccc3)cc2)cc1` [Example 57, N-(4-(3-(Benzylamino)pyrazin-2-yl)phenyl)-2-(4-(1,1-difluoropropyl)phenyl)acetamide], the inhibition at 1 µM was determined as 69.4% and the inhibition at 10 µM was 85.2%.

Consider `CCC(F)(F)c1ccc(CC(=O)Nc2ccc(-c3nccnc3NC(C)c3ccccc3)cc2)cc1` (stereo not shown) [Example 58, 2-(4-(1,1-Difluoropropyl)phenyl)-N-(4-(3-((1-phenylethyl)amino)pyrazin-2-yl)phenyl)acetamide], for which the inhibition at 1 µM was 80.3%, the inhibition at 10 µM was found to be 90.7% and the pIC50 is 6.30 to 7.00.

Regarding `CCC(F)(F)c1ccc(CC(=O)Nc2ccc(-c3nccnc3N[C@H](C)c3ccccc3)cc2)cc1` [Example 59, (R)-2-(4-(1,1-Difluoropropyl)phenyl)-N-(4-(3-((1-phenylethyl)amino)pyrazin-2-yl)phenyl)acetamide], the inhibition at 1 µM turned out to be 58.6% and the inhibition at 10 µM was 79.7%.

For `CCC(F)(F)c1ccc(CC(=O)Nc2ccc(-c3nccnc3N(C)[C@H](C)c3ccccc3)cc2)cc1` [Example 60, (R)-2-(4-(1,1-Difluoropropyl)phenyl)-N-(4-(3-(methyl(1-phenylethyl)amino)pyrazin-2-yl)phenyl)acetamide], the inhibition at 1 µM worked out at 69.6%, the inhibition at 10 µM is 83% and the pIC50 is 6.30 to 7.00.

As for `CCC(F)(F)c1ccc(CC(=O)Nc2ccc(-c3nccnc3N[C@@H](C)c3ccccc3)cc2)cc1` [Example 61, (S)-2-(4-(1,1-Difluoropropyl)phenyl)-N-(4-(3-((1-phenylethyl)amino)pyrazin-2-yl)phenyl)acetamide], the inhibition at 1 µM turned out to be 84.2%, the inhibition at 10 µM turned out to be 91.4% and the pIC50 is 7.00 to 7.30.

For `CCC(F)(F)c1ccc(CC(=O)Nc2ccc(-c3nccnc3N(C)[C@@H](C)c3ccccc3)cc2)cc1` [Example 62, (S)-2-(4-(1,1-Difluoropropyl)phenyl)-N-(4-(3-(methyl(1-phenylethyl)amino)pyrazin-2-yl)phenyl)acetamide], the inhibition at 1 µM came to 65.6% and the inhibition at 10 µM is 84.8%.

On to `CCC(F)(F)c1ccc(CC(=O)Nc2ccc(-c3nccnc3N[C@@H](C)c3ccc(Cl)cc3)cc2)cc1` [Example 63, (S)-N-(4-(3-((1-(4-Chlorophenyl)ethyl)amino)pyrazin-2-yl)phenyl)-2-(4-(1,1-difluoropropyl)phenyl)acetamide], for which the inhibition at 1 µM was found to be 86.8%, the inhibition at 10 µM is 91.2% and the negative logarithm of the IC50 (pIC50) was 7.00 to 7.30.

`CCC(F)(F)c1ccc(CC(=O)Nc2ccc(-c3nccnc3N[C@@H](C)c3cccc(Cl)c3)cc2)cc1` [Example 64, (S)-N-(4-(3-((1-(3-Chlorophenyl)ethyl)amino)pyrazin-2-yl)phenyl)-2-(4-(1,1-difluoropropyl)phenyl)acetamide]: the inhibition at 1 µM is 76.2%, the inhibition at 10 µM is 84.9% and the pIC50 is 6.30 to 7.00.

In the case of `CCC(F)(F)c1ccc(CC(=O)Nc2ccc(-c3nccnc3N(C)[C@@H](C)c3ccc(Cl)cc3)cc2)cc1` [Example 65, (S)-N-(4-(3-((1-(4-Chlorophenyl)ethyl)(methyl)amino)pyrazin-2-yl)phenyl)-2-(4-(1,1-difluoropropyl)phenyl)acetamide], the inhibition at 1 µM was 76.1%, the inhibition at 10 µM came out at 83.2% and the pIC50 was 6.30 to 7.00.

`CCC(F)(F)c1ccc(CC(=O)Nc2ccc(-c3nccnc3N[C@@H](C)c3ccccc3Cl)cc2)cc1` [Example 66, (S)-N-(4-(3-((1-(2-Chlorophenyl)ethyl)amino)pyrazin-2-yl)phenyl)-2-(4-(1,1-difluoropropyl)phenyl)acetamide]: the inhibition at 1 µM amounted to 88.4%, the inhibition at 10 µM stood at 90.2% and the negative logarithm of the IC50 (pIC50) was over 7.30.

Regarding `CCC(F)(F)c1ccc(CC(=O)Nc2ccc(-c3nccnc3N[C@@H](C)c3ccc(F)cc3C)cc2)cc1` [Example 67, (S)-2-(4-(1,1-Difluoropropyl)phenyl)-N-(4-(3-((1-(4-fluoro-2-methylphenyl)ethyl)amino)pyrazin-2-yl)phenyl)acetamide], the inhibition at 1 µM came to 87.9%, the inhibition at 10 µM was 92.4% and the negative-log IC50 (pIC50) was over 7.30.

For `CC(O)C(F)(F)c1ccc(CC(=O)Nc2ccc(-c3nccnc3N[C@@H](C)c3ccccc3Cl)cc2)cc1` (stereo partly drawn) [Example 68, N-(4-(3-(((S)-1-(2-Chlorophenyl)ethyl)amino)pyrazin-2-yl)phenyl)-2-(4-(1,1-difluoro-2-hydroxypropyl)phenyl)acetamide], the inhibition at 1 µM is 93.5%, the inhibition at 10 µM amounted to 96.9% and the negative-log IC50 (pIC50) is over 7.30.

With `CCC(F)(F)c1ccc(CC(=O)Nc2ccc(-c3nccnc3N[C@@H](C)c3ccc(C)cc3C)cc2)cc1` [Example 69, (S)-2-(4-(1,1-Difluoropropyl)phenyl)-N-(4-(3-((1-(2,4-dimethylphenyl)ethyl)amino)pyrazin-2-yl)phenyl)acetamide], the inhibition at 1 µM was found to be 97%, the inhibition at 10 µM came to 97.1% and the negative logarithm of the IC50 (pIC50) was over 7.30.
